Source: ChEMBL document CHEMBL1148765, “Design, synthesis, and estrogenic activity of a novel estrogen receptor modulator--a hybrid structure of 17beta-estradiol and vitamin E in hippocampal neurons” (J Med Chem, 2007)

Legend:
Homo sapiens = species on record: Homo sapiens; assay: Selectivity for ERbeta over ERalpha
[1] = Effect on glutamate-induced neurotoxicity in rat hippocampal neurons assessed increase in neuronal membrane integrity at 1 nM after 48 hrs relative to glutamate; assay type: functional, Hippocampus, Hippocampal neurone
[2] = Effect on glutamate-induced neurotoxicity in rat hippocampal neurons assessed increase in neuronal membrane integrity at 10 nM after 48 hrs relative to glutamate; assay type: functional, Hippocampus, Hippocampal neurone
[3] = Effect on glutamate-induced neurotoxicity in rat hippocampal neurons assessed increase in neuronal membrane integrity at 100 nM after 48 hrs relative to glutamate; assay type: functional, Hippocampus, Hippocampal neurone
[4] = Effect on glutamate-induced neurotoxicity in rat hippocampal neurons assessed increase in neuronal membrane integrity at 1000 nM after 48 hrs relative to glutamate; assay type: functional, Hippocampus, Hippocampal neurone
[5] = Effect on glutamate-induced loss of metabolic viability in rat hippocampal neurons assessed as increase in neuronal viability at 100 nM after 48 hrs relative to glutamate; assay type: functional, Hippocampus, Hippocampal neurone
[6] = Effect on glutamate-induced loss of metabolic viability in rat hippocampal neurons assessed as increase in neuronal viability at 1000 nM after 48 hrs relative to glutamate; assay type: functional, Hippocampus, Hippocampal neurone
[7] = Effect on glutamate-induced loss of metabolic viability in rat hippocampal neurons assessed as increase in neuronal viability at 1 nM after 48 hrs relative to glutamate; assay type: functional, Hippocampus, Hippocampal neurone
[8] = Effect on glutamate-induced loss of metabolic viability in rat hippocampal neurons assessed as increase in neuronal viability at 10 nM after 48 hrs relative to glutamate; assay type: functional, Hippocampus, Hippocampal neurone
[9] = Increase in ERK2 phosphorylation in rat hippocampal neurons at 100 nM after 30 mins by Western immunoblotting relative to control; assay type: functional, Hippocampus, Hippocampal neurone
Hippocampal neurone = assay: Increase in Akt phosphorylation in rat hippocampal neurons at 100 nM after 30 mins by Western immunoblotting relative to control; assay type: tissue-based; details: Hippocampus
[10] = Increase in Bcl2 expression in rat hippocampal neurons at 10 nM after 48 hrs by Western immunoblotting relative to control; assay type: functional, Hippocampus, Hippocampal neurone
[11] = Increase in Bcl-XL expression in rat hippocampal neurons at 10 nM after 48 hrs by Western immunoblotting relative to control; assay type: functional, Hippocampus, Hippocampal neurone
[12] = Increase in spinophilin expression in rat hippocampal neurons at 10 nM after 48 hrs by Western immunoblotting relative to control; assay type: functional, Hippocampus, Hippocampal neurone
Estrogen receptor = biological target: T1, Estrogen receptor (Homo sapiens, UniProt P03372)
T1 sequence (P03372 whole entry): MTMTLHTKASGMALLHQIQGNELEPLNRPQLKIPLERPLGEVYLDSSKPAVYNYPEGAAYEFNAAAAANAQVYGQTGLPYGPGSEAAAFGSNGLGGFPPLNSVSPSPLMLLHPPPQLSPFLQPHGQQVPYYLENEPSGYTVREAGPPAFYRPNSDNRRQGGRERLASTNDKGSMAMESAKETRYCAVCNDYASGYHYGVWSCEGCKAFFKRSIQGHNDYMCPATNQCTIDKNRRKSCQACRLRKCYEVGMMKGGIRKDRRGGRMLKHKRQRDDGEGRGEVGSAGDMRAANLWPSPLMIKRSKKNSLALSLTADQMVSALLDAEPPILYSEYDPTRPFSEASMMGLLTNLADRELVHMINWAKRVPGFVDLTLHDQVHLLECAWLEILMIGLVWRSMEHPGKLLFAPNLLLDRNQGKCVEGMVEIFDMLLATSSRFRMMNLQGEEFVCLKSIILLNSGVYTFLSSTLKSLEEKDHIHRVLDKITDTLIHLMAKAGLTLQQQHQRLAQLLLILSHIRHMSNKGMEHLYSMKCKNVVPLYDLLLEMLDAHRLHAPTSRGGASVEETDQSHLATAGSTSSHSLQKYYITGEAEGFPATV
Description: Binding affinity to human ERalpha

Estrogen receptor beta = Estrogen receptor beta (Homo sapiens, UniProt Q92731)
Chain of Estrogen receptor beta (Q92731 whole entry): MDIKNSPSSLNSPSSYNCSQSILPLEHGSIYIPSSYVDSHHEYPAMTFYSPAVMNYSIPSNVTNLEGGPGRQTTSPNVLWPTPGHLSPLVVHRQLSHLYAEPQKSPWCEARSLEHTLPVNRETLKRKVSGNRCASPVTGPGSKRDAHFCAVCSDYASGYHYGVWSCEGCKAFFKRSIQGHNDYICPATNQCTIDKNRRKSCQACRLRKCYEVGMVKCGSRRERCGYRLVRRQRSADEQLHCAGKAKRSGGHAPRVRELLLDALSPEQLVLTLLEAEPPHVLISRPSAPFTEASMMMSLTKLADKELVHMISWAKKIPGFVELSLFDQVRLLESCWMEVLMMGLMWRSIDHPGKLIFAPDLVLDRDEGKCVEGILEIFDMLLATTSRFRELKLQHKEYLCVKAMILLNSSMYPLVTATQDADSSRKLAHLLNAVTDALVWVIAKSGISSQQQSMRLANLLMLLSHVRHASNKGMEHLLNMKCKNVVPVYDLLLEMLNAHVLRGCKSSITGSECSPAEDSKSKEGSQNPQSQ
Description: Binding affinity to human ERbeta

Row | Selectivity ratio (Homo sapiens) | Structure (SMILES) | Activity [1] [%] | Activity [2] [%] | Activity [3] [%] | Activity [4] [%] | Activity [5] [%] | Activity [6] [%] | Activity [7] [%] | Activity [8] [%] | Activity [9] [%] | Activity (Hippocampal neurone) [%] | Activity [10] [%] | Activity [11] [%] | Activity [12] [%] | IC50 (Estrogen receptor) [µM] | IC50 (Estrogen receptor beta) [µM]
1 | 48 | Oc1ccc(/C=C/c2cc(O)cc(O)c2)cc1 | – | – | – | – | – | – | – | – | – | – | – | – | – | – | –
2 | – | CC(C)CCC[C@@H](C)CCC[C@@H](C)CCC[C@@H]1Cc2cc(O)ccc2[C@H]2CC[C@]3(C)[C@@H](O)CC[C@H]3[C@H]12 | 38.6 | 44.1 | 67 | 59.1 | 28.4 | 25.6 | 2.7 | 9.3 | 46.3 | 139 | 23.4 | 58 | 61.7 | 0.193 | 0.267
